Test results as given in PubChem BioAssay (NCI).
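These data come from cells grown in 96-well plates and exposed to compound for 48 hours at five concentrations. TGI: total growth inhibition.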

Assays:
Assay in all cases: NCI-60 cell line screen, 48 h
UACC-62 melanoma = test system: UACC-62 melanoma
MCF7 breast = test system: MCF7 breast
HS 578T breast = test system: HS 578T breast
SF-539 CNS = test system: SF-539 CNS
OVCAR-5 ovarian = test system: OVCAR-5 ovarian
SK-MEL-28 melanoma = test system: SK-MEL-28 melanoma
MDA-MB-231 breast = test system: MDA-MB-231 breast
CCRF-CEM leukemia = test system: CCRF-CEM leukemia
NCI-H23 lung = test system: NCI-H23 lung
A498 renal = test system: A498 renal
HCT-15 colon = test system: HCT-15 colon
BT-549 breast = test system: BT-549 breast
DU-145 prostate = test system: DU-145 prostate
NCI-H460 lung = test system: NCI-H460 lung
MALME-3M melanoma = test system: MALME-3M melanoma
HCT-116 colon = test system: HCT-116 colon
MOLT-4 leukemia = test system: MOLT-4 leukemia
NCI-H226 lung = test system: NCI-H226 lung
CAKI-1 renal = test system: CAKI-1 renal
EKVX NSCLC = test system: EKVX NSCLC
T-47D breast = test system: T-47D breast
UACC-257 melanoma = test system: UACC-257 melanoma
MDA-MB-435 = test system: MDA-MB-435
SR leukemia = test system: SR leukemia
OVCAR-4 ovarian = test system: OVCAR-4 ovarian
SF-268 CNS = test system: SF-268 CNS
K-562 leukemia = test system: K-562 leukemia
IGROV1 ovarian = test system: IGROV1 ovarian
MDA-N = test system: MDA-N
RPMI-8226 leukemia = test system: RPMI-8226 leukemia
NCI-H522 lung = test system: NCI-H522 lung
HT29 colon = test system: HT29 colon
UO-31 renal = test system: UO-31 renal
HOP-92 NSCLC = test system: HOP-92 NSCLC
HCC-2998 colon = test system: HCC-2998 colon
SN12C renal = test system: SN12C renal
786-0 renal = test system: 786-0 renal
SW-620 colon = test system: SW-620 colon
PC-3 prostate = test system: PC-3 prostate
LOX IMVI melanoma = test system: LOX IMVI melanoma
SNB-75 CNS = test system: SNB-75 CNS
SK-MEL-5 melanoma = test system: SK-MEL-5 melanoma
TK-10 renal = test system: TK-10 renal
RXF 393 renal = test system: RXF 393 renal
U251 CNS = test system: U251 CNS
M14 melanoma = test system: M14 melanoma
HL-60(TB) leukemia = test system: HL-60(TB) leukemia
A549 NSCLC = test system: A549 NSCLC
NCI/ADR-RES ovarian = test system: NCI/ADR-RES ovarian
KM12 colon = test system: KM12 colon
COLO 205 colon = test system: COLO 205 colon
OVCAR-8 ovarian = test system: OVCAR-8 ovarian
SNB-19 CNS = test system: SNB-19 CNS
ACHN renal = test system: ACHN renal
SK-MEL-2 melanoma = test system: SK-MEL-2 melanoma
OVCAR-3 ovarian = test system: OVCAR-3 ovarian
HOP-62 NSCLC = test system: HOP-62 NSCLC
SF-295 CNS = test system: SF-295 CNS

Cc1ccc2c(c1)C=CC(C#N)N2C(=O)Oc1ccccc1 (stereo not given)
TGI (UACC-62 melanoma): > 100 µM
TGI (MCF7 breast): 40.2 µM
TGI (HS 578T breast): > 100 µM
TGI (SF-539 CNS): > 100 µM
TGI (OVCAR-5 ovarian): > 100 µM
TGI (SK-MEL-28 melanoma): > 100 µM
TGI (MDA-MB-231 breast): > 100 µM
TGI (CCRF-CEM leukemia): 40.1 µM
TGI (NCI-H23 lung): 44.5 µM
TGI (A498 renal): 55.4 µM
TGI (HCT-15 colon): 57.2 µM
TGI (BT-549 breast): 48.2 µM
TGI (DU-145 prostate): 42.7 µM
TGI (NCI-H460 lung): > 100 µM
TGI (MALME-3M melanoma): > 100 µM
TGI (HCT-116 colon): > 100 µM
TGI (MOLT-4 leukemia): 54.9 µM
TGI (NCI-H226 lung): 99.9 µM
TGI (CAKI-1 renal): > 100 µM
TGI (EKVX NSCLC): 43 µM
TGI (T-47D breast): 73.8 µM
TGI (UACC-257 melanoma): > 100 µM
TGI (MDA-MB-435): 29.7 µM
TGI (SR leukemia): 46.8 µM
TGI (OVCAR-4 ovarian): 70.7 µM
TGI (SF-268 CNS): > 100 µM
TGI (K-562 leukemia): 64.4 µM
TGI (IGROV1 ovarian): > 100 µM
TGI (MDA-N): > 100 µM
TGI (RPMI-8226 leukemia): 52.6 µM
TGI (NCI-H522 lung): 41 µM
TGI (HT29 colon): 35.3 µM
TGI (UO-31 renal): > 100 µM
TGI (HOP-92 NSCLC): 64.7 µM
TGI (HCC-2998 colon): 31.2 µM
TGI (SN12C renal): > 100 µM
TGI (786-0 renal): > 100 µM
TGI (SW-620 colon): > 100 µM
TGI (PC-3 prostate): 97.9 µM
TGI (LOX IMVI melanoma): 40 µM
TGI (SNB-75 CNS): > 100 µM
TGI (SK-MEL-5 melanoma): > 100 µM
TGI (TK-10 renal): 94.2 µM
TGI (RXF 393 renal): > 100 µM
TGI (U251 CNS): 66.4 µM
TGI (M14 melanoma): > 100 µM
TGI (HL-60(TB) leukemia): 50.5 µM
TGI (A549 NSCLC): > 100 µM
TGI (NCI/ADR-RES ovarian): 50.6 µM
TGI (KM12 colon): 33.2 µM
TGI (COLO 205 colon): 70.1 µM
TGI (OVCAR-8 ovarian): 31.1 µM
TGI (SNB-19 CNS): > 100 µM
TGI (ACHN renal): 83.3 µM
TGI (SK-MEL-2 melanoma): 61.9 µM

O=C1COCCN1C(=O)c1ccccc1Cl
TGI (UACC-62 melanoma): > 100 µM
TGI (MCF7 breast): > 100 µM
TGI (HS 578T breast): > 100 µM
TGI (SF-539 CNS): > 100 µM
TGI (OVCAR-5 ovarian): > 100 µM
TGI (SK-MEL-28 melanoma): > 100 µM
TGI (MDA-MB-231 breast): > 100 µM
TGI (CCRF-CEM leukemia): > 100 µM
TGI (NCI-H23 lung): > 100 µM
TGI (A498 renal): > 100 µM
TGI (HCT-15 colon): > 100 µM
TGI (BT-549 breast): > 100 µM
TGI (DU-145 prostate): > 100 µM
TGI (NCI-H460 lung): > 100 µM
TGI (MALME-3M melanoma): > 100 µM
TGI (HCT-116 colon): > 100 µM
TGI (NCI-H226 lung): > 100 µM
TGI (CAKI-1 renal): > 100 µM
TGI (EKVX NSCLC): > 100 µM
TGI (OVCAR-3 ovarian): > 100 µM
TGI (T-47D breast): > 100 µM
TGI (UACC-257 melanoma): > 100 µM
TGI (MDA-MB-435): > 100 µM
TGI (SR leukemia): > 100 µM
TGI (OVCAR-4 ovarian): > 100 µM
TGI (SF-268 CNS): > 100 µM
TGI (K-562 leukemia): > 100 µM
TGI (IGROV1 ovarian): > 100 µM
TGI (MDA-N): > 100 µM
TGI (RPMI-8226 leukemia): > 100 µM
TGI (HOP-62 NSCLC): > 100 µM
TGI (NCI-H522 lung): > 100 µM
TGI (HT29 colon): > 100 µM
TGI (UO-31 renal): > 100 µM
TGI (HOP-92 NSCLC): > 100 µM
TGI (HCC-2998 colon): > 100 µM
TGI (SN12C renal): > 100 µM
TGI (786-0 renal): > 100 µM
TGI (SW-620 colon): > 100 µM
TGI (PC-3 prostate): > 100 µM
TGI (LOX IMVI melanoma): > 100 µM
TGI (SF-295 CNS): > 100 µM
TGI (SNB-75 CNS): > 100 µM
TGI (SK-MEL-5 melanoma): > 100 µM
TGI (TK-10 renal): > 100 µM
TGI (RXF 393 renal): > 100 µM
TGI (U251 CNS): > 100 µM
TGI (M14 melanoma): > 100 µM
TGI (HL-60(TB) leukemia): > 100 µM
TGI (A549 NSCLC): > 100 µM
TGI (NCI/ADR-RES ovarian): > 100 µM
TGI (KM12 colon): > 100 µM
TGI (OVCAR-8 ovarian): > 100 µM
TGI (SNB-19 CNS): > 100 µM
TGI (ACHN renal): > 100 µM
